Reference: US20140121235A1, “Method for Treating S6K-Overexpressing Cancers” (Rush University Medical Center, priority 2012, published 2014)

Tests used:
[1] = cited from earlier work
A375 cells = assay: Cell cycle analysis (propidium iodine, flow cytometer); assay type: cell-based; details: A375 cells, A77 1726 at 50 μM, 24 hr
Experimental: (A) Ability of uridine to relieve the cell cycle arrest in the S phase. A375 cells grown in 6-well plates were treated with the indicated concentration of A771726 with or without uridine (200 μM) for 24 hr. Cell cycle was analyzed in a flow cytometer as described in Materials and Methods. (B) Effect of the MAP kinase pathway inhibitors on A77 1726-mediated cell cycle arrest in the S phase. A375 cells were treated with A771726 (100 μM) in the absence or presence of 0.1% DMSO, […] (1 μM), U0126 (10 μM), PD98059 (10 for 24 hr. Single cell suspensions were prepared and analyzed for cell cycle in a flow cytometer. (C) Effect of the PI-3 kinase pathway inhibitors and their effect on A77 1726-mediated cell cycle arrest. A375 cells were treated with A77 1726 (100 μM), rapamycin (20 nM), and/or LY294002 (10 μM). After incubation for 24 hr, cells were harvested and analyzed for cell cycle progress.
Cells were grown in complete RPMI1640 medium with 10% fetal bovine serum in 6-well plates. Upon 60% confluence, the cells were treated with vehicle or with indicated concentrations of A77 1726 or various inhibitors as indicated for 24 hr. Cells were pulsed with 10 μM BrdU for 2 hr. Cells were harvested, denatured with 2N HCl for 5 min at room temperature followed by neutralization with 0.1M borate buffer (pH 8.5). After washing and blocking with normal mouse serum, the cells were stained with an Alexa Fluor 488-conjugated anti-BrdU monoclonal antibody (BD Bioscience), followed by analysis in a flow cytometer. Alexa Fluor 488-conjugated mouse IgG was included as a control. For cell cycle analysis, the cells were harvested and fixed with 2 ml cold 70% ethanol in PBS overnight at 4° C. Fixed cells were then washed 3 times with PBS, treated with RNaseA (100 μg/ml in 0.5 ml PBS). After incubation at room temperature for 30 min, cells were stained with 2.5 μl propidium iodine (10 mg/ml.) and immediately analyzed for DNA content in a flow cytometer.

cyclin D1 expression = assay: Cyclin D1 expression in A375 cells; assay type: cell-based; set-up: dose or concentration left out as unconfirmed; details: A375 cells, 24, 48 and 72 hours; time-dependent
Experimental: FIG. 13 illustrates inhibition of […]) expression by A 77 1726.
S6K 1 has been implicated in playing an important role in regulating expression of cyclin D1. Cyclin D1 expression was tested in the presence of A 77 1726. A375 cells were treated with […] A 77 1726 for 0, 24, 48 and 72 hours.

[2] = tested on: carbomoyl-phosphate synthetase 2 (CAD) Ser-1859 phosphorylation; assay: CAD phosphorylation in A375 cells (phosphor-specific antibody); assay type: cell-based; details: A375 cells, 0, 50, 100 or 200 μM for 2 hours
Experimental: FIG. 12 illustrates inhibition of carbamoyl-phosphate synthetase 2 (CAD) by A 77 1726.
The ability of […] to inhibit phosphorylation of CAD at the Ser-1859 site was tested. A375 melanoma tumor cell line cultures were pretreated with the 0, 50, 100 or 200 μM A 771726 for 2 hours. Total cell lysates were prepared and analyzed for the phosphorylation of CAD by a phosphor-specific antibody.

BT-20 cells = assay: Western blot of protein phosphorylation in BT-20 cells; assay type: cell-based
Experimental: (A) A77 1726 induces MAP kinase activation in A375 cells cultured in 10% fetal bovine serum. A375 cells were seeded in a 6-well plate overnight and then stimulated with various concentrations of A77 1726 or PLX 4720 (1 μM) for 2 hr. Cells were harvested and analyzed for MAP kinase activation by anti-phospho-ERK1/2 antibody. The membrane was stripped and re-probed with anti-ERK1/2 antibody. (B) Lack of the feedback activation of the MAP and PI-3 kinase pathways in BT-20 cells. BT20 cells seeded in 6-well plates were starved in DMEM medium containing 05% EBS for 2 hr and treated with A77 1726 (0, 50 or 100 μM), Cells were harvested and analyzed for protein phosphorylation by specific antibodies as indicated. Protein loading was monitored by stripping membrane and re-probing with antibodies against non-phosphorylated proteins. (C) Strong feedback activation of the PI-3 kinase pathway and weak feedback activation of the MAP kinase pathway in MCF-7 cells by A77 1726 and rapamycin. […] Cells were harvested and analyzed for protein phosphorylation with the indicated antibodies. […] Cells were harvested and analyzed for protein phosphorylation by specific antibodies as indicated. Protein loading was monitored by stripping membrane and re-probing with antibodies against nonphosphorylated proteins. […]

[3] = mice, single dose of 35 mg/kg of leflunomide

C/C(O)=C(\C#N)C(=O)Nc1ccc(C(F)(F)F)cc1 [A77 1726]
serum half-life of A77 1726 ([1]; mice treated with leflunomide at a dose of 35 mg): 15 h | serum concentration of A77 1726 at 24 hr ([1]; mice, 24 hr after single dose of 35 mg/kg of leflunomide): 250 µM | peak serum concentration of A77 1726 [1, 3]: 500 µM | time to peak concentration of A77 1726 [1, 3]: ≤ 4 h | effect on cell cycle (A375 cells): sufficient to arrest cell cycle in the S phase | effect on cyclin D1 expression (cyclin D1 expression): inhibited | effect on CAD phosphorylation at Ser-1859 [2]: inhibited phosphorylation in a dose-dependent manner | effect on ERK phosphorylation (BT-20 cells): had no effect | effect on S6^S235/236 phosphorylation (BT-20 cells): Inhibition
